Assay results: paper PMC8230370, “Antiproliferative Illudalane Sesquiterpenes from the Marine Sediment Ascomycete Aspergillus oryzae” (Marine Drugs, 2021)
Entries after “also recorded” stand apart in the source; their conditions may differ. Read-outs that look alike come from different tables or passages of the source.

Experiments:
[1] = test system: MCF-7 (breast) cancer cells; assay: MTT antiproliferative assay, MCF-7 breast carcinoma; format: cell-based, human; conditions: 48 h incubation, MCF-7 cells, read-out: IC50 for the Different Carcinoma Cell Lines, MCF-7 (Breast)
Description: (§1) The antiproliferative activity of compounds was measured using MTT (3-(4, 5-dimethylthiazol-2-yl)-2,5-diphenyltetrazolium bromide) assay. A549 (lung), HepG2 (liver), and MCF-7 (breast) cancer cells were purchased from the American Type Cell Collection (ATCC, Manassas, VA, USA). The cells were seeded at 5 × 10^4 cells/well (in 100 μL of DMEM) in 96-well microplates. After 24 h incubation at 37 °C, serial dilution (15–250 µM) of each compound was added and incubated for 48 h. Thereafter, 10 μL of the MTT solution (5 mg/mL) was added to each well. After 4 h incubation with the MTT solution, a volume of 100 μL of acidified isopropanol was added to solubilize the formazan product and incubated on a shaker for a further 10 min. Reduced MTT was assayed at 570 nm using a microplate reader (BioTek, Winoosky, VT, USA). Control groups received the same amount of DMSO (0.1%), untreated cells were used as a negative control, whereas cells treated with doxorubicin were used as a positive control. The IC50 (concentration that caused more than 50% inhibition of proliferation) was calculated from a dose-dependent curve. The cell viability percent was calculated = mean absorbance of treated sample/mean absorbance of control ×100.

zebrafish embryos = assay: Zebrafish embryo toxicity screening; format: in vivo; conditions: for observable toxicity / development of treated zebrafish embryos: up to 3 days post treatment
Excerpt: Wild-type zebrafish strain AB/Tuebingen TAB-14(AB/TuebingenTAB-14) (Catalog ID: ZL1438) were obtained from zebrafish international resource center and grown in an animal facility at the Department of Zoology, King Saud University, Riyadh, Kingdom of Saudi Arabia. The fish were maintained and bred following guidelines of the Institutional Animal Care and Use Committee (ICUAC) and zebrafish book. The fertilized embryos were obtained by natural pairwise breeding of adult fish. The fertilized embryos were sorted, dead embryos were removed, and synchronous stage embryos were used for screening.
A stock solution of 25 mM was made by dissolving the compounds in molecular biology grade DMSO (Sigma Aldrich, St. Louis, MI, USA). Zebrafish embryos were exposed to serial dilution (1, 5, 15, 45, 150, and 300 µM) of each compound. The embryos were remained exposed to the compounds for 3 days, and the embryos medium containing the compounds were changed every day. The response of the embryos toward mortality, and embryonic toxicity (teratogenicity) was monitored once after 12 h and then after every 24 h until the end of the experiment. The experiment was repeated at least three times (triplicate biological repeats) by using a new batch of embryos every time. LC50 for zebrafish embryonic toxicity was calculated by using an updated Probit analysis by Finney method.

A549 (lung) cancer cells = assay: MTT antiproliferative assay, A549 lung carcinoma; format: cell-based, human; conditions: 48 h incubation, read-out: IC50 for the Different Carcinoma Cell Lines, A549 (Lung)
Description: as §1

[2] = test system: HepG2 (liver) cancer cells; assay: MTT antiproliferative assay, HepG2 liver carcinoma; format: cell-based, human; conditions: 48 h incubation, read-out: IC50 for the Different Carcinoma Cell Lines, HepG2 (Liver)
Description: as §1

SMILES	IC50 ([1]; Homo sapiens, MCF7, 48 h) [µM]	death of treated embryos (zebrafish embryos; after 24 h post treatment, initial development normal) [%]	observable toxicity / development of treated zebrafish embryos (zebrafish embryos)	IC50 (A549 (lung) cancer cells; Homo sapiens, A549, 48 h) [µM]	IC50 ([2]; Homo sapiens, HepG2, 48 h) [µM]	IC50 [1] [µM]	toxicity in zebrafish embryos (zebrafish embryos; more than 200 µM compound, after 2 days post treatment)	IC50 (A549 (lung) cancer cells) [µM]	IC50 [2] [µM]
CC(=O)OCc1cc(=O)occ1O [Compound 4, (5-hydroxy-2-oxo-2H-pyran-4-yl)methyl acetate]	171 ± 4.5	100	found dead on day 2	89.4 ± 2.3	127 ± 6.4				
Cc1c2c(cc3c1CCOC3=O)C[C@](C)(CO)C2 [Compound 2, echinolactone D]	128 ± 2.8		did not exhibit any observable toxicity; also recorded: developed normally	55.7 ± 2.5	148 ± 5.6				
COc1cccc2c1C(=O)c1c(O)c3c(c(O)c1C2=O)C[C@@](O)(C(=O)CO)C[C@@H]3O[C@H]1C[C@H](N)[C@H](O)[C@H](C)O1 [Doxorubicin, doxorubicin, reference compound]	1.9 ± 0.05			2.1 ± 0.08	2.2 ± 0.15				
O=Cc1ccc(O)cc1 [Compound 5, 4-hydroxybenzaldehyde]	158 ± 5.5		did not exhibit any observable toxicity; also recorded: developed normally	97.5 ± 2.6	243 ± 6.4				
Cc1c2c(cc3c1[C@@H](O)COC3=O)CC(C)(C)C2 [Compound 1, asperorlactone]	< 100			< 100	< 100	106 ± 4.2	cardiac toxicity (cardiac edema and cardiac hypertrophy	72.7 ± 1.1	86.6 ± 3.2
O=c1cc(CO)c(O)co1 [Compound 3, 4-(hydroxymethyl)-5-hydroxy-2H-pyran-2-one]	225 ± 5.1		did not exhibit any observable toxicity; also recorded: developed normally	208 ± 6.8	220 ± 3.6				
